Test results: patent publication US11026427B2, “Microbiocidal oxadiazole derivatives” (SYNGENTA PARTICIPATIONS AG, priority 2016, dated 2021)

Assays:
[1] = test system: Glomerella lacenarium (Colletotrichum lacenarium); assay: Glomerella lacenarium (Colletotrichum lacenarium) liquid culture / cucumber / preventative (anthracnose); assay type: cell-based; settings: 20 ppm in the applied formulation, growth inhibition measured photometrically, compared to untreated control, read-out: disease control
Experimental: Mycelia fragments or conidia suspensions of a fungus prepared either freshly from liquid cultures of the fungus or from cryogenic storage, are directly mixed into nutrient broth. DMSO solutions of the test compound (max. 10 mg/ml) are diluted with 0.025% Tween20 by a factor of 50 and 10 μl of this solution is pipetted into a microtiter plate (96-well format). The nutrient broth containing the fungal spores/mycelia fragments is then added to give an end concentration of the tested compound. The test plates are incubated in the dark at 24° C. and 96% relative humidity. The inhibition of fungal growth is determined photometrically after 2 to 7 days, depending on the pathosystem, and percent antifungal activity relative to the untreated check is calculated.
Conidia of the fungus from cryogenic storage are directly mixed into nutrient broth (PDB—potato dextrose broth). After placing a (DMSO) solution of test compound into a microtiter plate (96-well format), the nutrient broth containing the fungal spores is added. The test plates are incubated at 24° C. and the inhibition of growth is measured photometrically 3 to 4 days after application.
The following compounds at 20 ppm in the applied formulation give at least 80% disease control in this test when compared to untreated control under the same conditions, which show extensive disease development.

[2] = test system: Puccinia recondita f. Sp. tritici; assay: Puccinia recondita f. sp. tritici / wheat / leaf disc curative (brown rust); assay type: in vivo; settings: foliar, 200 ppm in the applied formulation, compared to untreated control, read-out: disease control
Experimental: (§1) Leaf disks or leaf segments of various plant species are cut from plants grown in a greenhouse. The cut leaf disks or segments are placed in multiwell plates (24-well format) onto water agar. The leaf disks are sprayed with a test solution before (preventative) or after (curative) inoculation. Compounds to be tested are prepared as DMSO solutions (max. 10 mg/ml) which are diluted to the appropriate concentration with 0.025% Tween20 just before spraying. The inoculated leaf disks or segments are incubated under defined conditions (temperature, relative humidity, light, etc.) according to the respective test system. A single evaluation of disease level is carried out 3 to 14 days after inoculation, depending on the pathosystem. Percent disease control relative to the untreated check leaf disks or segments is then calculated.
Wheat leaf segments cv. Kanzler are placed on agar in multiwell plates (24-well format). The leaf segments are then inoculated with a spore suspension of the fungus. Plates were stored in darkness at 19° C. and 75% relative humidity. The formulated test compound diluted in water was applied 1 day after inoculation. The leaf segments were incubated at 19° C. and 75% relative humidity under a light regime of 12 hours light/12 hours darkness in a climate cabinet and the activity of a compound was assessed as percent disease control compared to untreated when an appropriate level of disease damage appears in untreated check leaf segments (6 to 8 days after application).
(§2) The following compounds at 200 ppm in the applied formulation give at least 80% disease control in this test when compared to untreated control leaf disks under the same conditions, which show extensive disease development.

Phakopsora pachyrhizi = Phakopsora pachyrhizi / soybean / leaf disc preventative (Asian soybean rust); assay type: in vivo; settings: foliar, 200 ppm in the applied formulation, compared to untreated control, read-out: disease control
Experimental: as §1
Soybean leaf disks are placed on water agar in multiwell plates (24-well format) and sprayed with the formulated test compound diluted in water. One day after application leaf discs are inoculated by spraying a spore suspension on the lower leaf surface. After an incubation period in a climate cabinet of 24-36 hours in darkness at 20° C. and 75% rh leaf disc are kept at 20° C. with 12 h light/day and 75% rh. The activity of a compound is assessed as percent disease control compared to untreated when an appropriate level of disease damage appears in untreated check leaf disks (12 to 14 days after application).
as §2

[3] = test system: Puccinia recondita f. Sp. tritici; assay: Puccinia recondita f. sp. tritici / wheat / leaf disc preventative (brown rust); assay type: in vivo; settings: foliar, 200 ppm in the applied formulation, compared to untreated control, read-out: disease control
Experimental: as §1, with “calculated. Wheat leaf segments cv. Kanzler were placed on agar in multiwell plates (24-well format) and sprayed with the formulated test compound diluted in water. The leaf disks were inoculated with a spore suspension of the fungus 1 day after application. The inoculated leaf segments were incubated at 19° C. and 75% relative humidity (rh) under a light regime of 12 hours light/12 hours darkness in a climate cabinet and the activity of a compound was assessed as percent disease control compared to untreated when an appropriate level of disease damage appears in untreated check leaf segments (7 to 9 days after application). The following compounds at 200 ppm in the applied formulation give at least 80% disease control in this test when compared to untreated control leaf disks under the same conditions, which show extensive disease development.” for “calculated.”

Row | melting point | SMILES | inhibition of growth at 20 ppm [1] | pest or weed control at 200 ppm [2] | pest or weed control at 200 ppm (Phakopsora pachyrhizi) | pest or weed control at 200 ppm [3]
1 | – | Cc1cc(C(=O)c2ccc(-c3noc(C(F)(F)F)n3)cc2)on1 [Compound 1.13, (3-methylisoxazol-5-yl)-[4-[5-(trifluoromethyl)-1,2,4-oxadiazol-3-yl]phenyl]methanone] | ≥ 80% | ≥ 80% | ≥ 80% | ≥ 80%
2 | – | CCc1cc(C(=O)c2ccc(-c3noc(C(F)(F)F)n3)cc2)on1 [Compound 1.14, (3-ethylisoxazol-5-yl)-[4-[5-(trifluoromethyl)-1,2,4-oxadiazol-3-yl]phenyl]methanone] | ≥ 80% | ≥ 80% | ≥ 80% | ≥ 80%
3 | 66 to 70 °C | O=C(c1ccc(-c2noc(C(F)(F)F)n2)cc1)c1ccccn1 [Compound 1.16, 2-pyridyl-[4-[5-(trifluoromethyl)-1,2,4-oxadiazol-3-yl]phenyl]methanone] | ≥ 80% | ≥ 80% | ≥ 80% | ≥ 80%
4 | 80 to 86 °C | CCn1cc(C(=O)c2ccc(-c3noc(C(F)(F)F)n3)cc2)cn1 [Compound 1.17, (1-ethylpyrazol-4-yl)-[4-[5-(trifluoromethyl)-1,2,4-oxadiazol-3-yl]phenyl]methanone] | ≥ 80% | ≥ 80% | ≥ 80% | ≥ 80%
5 | – | Cc1cccc(C(=O)c2ccc(-c3noc(C(F)(F)F)n3)cc2)n1 [Compound 1.18, (6-methyl-2-pyridyl)-[4-[5-(trifluoromethyl)-1,2,4-oxadiazol-3-yl]phenyl]methanone] | ≥ 80% | ≥ 80% | ≥ 80% | ≥ 80%
6 | 65 to 73 °C | COc1ccc(C(=O)c2ccc(-c3noc(C(F)(F)F)n3)cc2)nc1 [Compound 1.20, (5-methoxy-2-pyridyl)-[4-[5-(trifluoromethyl)-1,2,4-oxadiazol-3-yl]phenyl]methanone] | ≥ 80% | ≥ 80% | ≥ 80% | ≥ 80%
7 | 84 to 90 °C | O=C(c1ccc(-c2noc(C(F)(F)F)n2)cc1)c1nccs1 [Compound 1.24, thiazol-2-yl-[4-[5-(trifluoromethyl)-1,2,4-oxadiazol-3-yl]phenyl]methanone] | ≥ 80% | ≥ 80% | ≥ 80% | ≥ 80%
8 | 142 to 146 °C | N#Cc1ccc(C(=O)c2ccc(-c3noc(C(F)(F)F)n3)nc2)cc1 [Compound 1.30, 4-[6-[5-(trifluoromethyl)-1,2,4-oxadiazol-3-yl]pyridine-3-carbonyl]benzonitrile] | ≥ 80% | ≥ 80% | – | ≥ 80%
9 | – | Cc1nc(C(=O)c2ccc(-c3noc(C(F)(F)F)n3)cc2)cs1 [Compound 1.33, (2-methylthiazol-4-yl)-[4-[5-(trifluoromethyl)-1,2,4-oxadiazol-3-yl]phenyl]methanone] | ≥ 80% | ≥ 80% | – | ≥ 80%
10 | 112 to 118 °C | O=C(c1ccc(-c2noc(C(F)(F)F)n2)cc1)c1ccno1 [Compound 1.35, isoxazol-5-yl-[4-[5-(trifluoromethyl)-1,2,4-oxadiazol-3-yl]phenyl]methanone] | ≥ 80% | ≥ 80% | – | ≥ 80%
11 | – | Cc1ccc(C(=O)c2ccc(-c3noc(C(F)(F)F)n3)cc2)nc1 [Compound 1.37, (5-methyl-2-pyridyl)-[4-[5-(trifluoromethyl)-1,2,4-oxadiazol-3-yl]phenyl]methanone] | ≥ 80% | ≥ 80% | – | ≥ 80%
12 | – | OC(c1ccc(-c2noc(C(F)(F)F)n2)cc1)c1ccccn1 (stereo not shown) [Compound 2.12, 2-pyridyl-[4-[5-(trifluoromethyl)-1,2,4-oxadiazol-3-yl]phenyl]methanol] | ≥ 80% | ≥ 80% | ≥ 80% | ≥ 80%
13 | – | Cc1cccc(C(O)c2ccc(-c3noc(C(F)(F)F)n3)cc2)n1 (stereo not shown) [Compound 2.13, (6-methyl-2-pyridyl)-[4-[5-(trifluoromethyl)-1,2,4-oxadiazol-3-yl]phenyl]methanol] | ≥ 80% | ≥ 80% | ≥ 80% | ≥ 80%
14 | 56 to 60 °C | OC(c1ccc(-c2noc(C(F)(F)F)n2)cc1)c1cscn1 (stereo not shown) [Compound 2.18, thiazol-4-yl-[4-[5-(trifluoromethyl)-1,2,4-oxadiazol-3-yl]phenyl]methanol] | ≥ 80% | ≥ 80% | – | ≥ 80%
15 | 95 to 99 °C | Cc1nc(C(O)c2ccc(-c3noc(C(F)(F)F)n3)cc2)cs1 (stereo not shown) [Compound 2.20, (2-methylthiazol-4-yl)-[4-[5-(trifluoromethyl)-1,2,4-oxadiazol-3-yl]phenyl]methanol] | – | ≥ 80% | – | ≥ 80%
16 | 104 to 108 °C | Cc1ncc(C(O)c2ccc(-c3noc(C(F)(F)F)n3)cc2)s1 (stereo not shown) [Compound 2.22, (2-methylthiazol-5-yl)-[4-[5-(trifluoromethyl)-1,2,4-oxadiazol-3-yl]phenyl]methanol] | – | ≥ 80% | – | ≥ 80%
17 | – | C=C(C)CC(O)(c1ccc(-c2noc(C(F)(F)F)n2)cc1)c1cc(C)no1 (stereo not shown) [Compound 2.24, 3-methyl-1-(3-methylisoxazol-5-yl)-1-[4-[5-(trifluoromethyl)-1,2,4-oxadiazol-3-yl]phenyl]but-3-en-1-ol] | – | ≥ 80% | – | ≥ 80%
18 | – | Cc1cc(C(C)(O)c2ccc(-c3noc(C(F)(F)F)n3)cc2)on1 (stereo not shown) [Compound 2.26, 1-(3-methylisoxazol-5-yl)-1-[4-[5-(trifluoromethyl)-1,2,4-oxadiazol-3-yl]phenyl]ethanol] | – | ≥ 80% | – | ≥ 80%
19 | – | CCC(O)(c1ccc(-c2noc(C(F)(F)F)n2)cc1)c1cc(C)no1 (stereo not shown) [Compound 2.27, 1-(3-methylisoxazol-5-yl)-1-[4-[5-(trifluoromethyl)-1,2,4-oxadiazol-3-yl]phenyl]propan-1-ol] | – | ≥ 80% | – | ≥ 80%
